Assay results as given in patent publication US20240116985A1, “STAPLED PEPTIDES AND METHODS THEREOF” (priority 2020, published 2024).
Like-named read-outs stand apart in the source and are kept apart here.

Key:
[1] = molecular target: T1, full-length beta-Catenin (Uniprot ID P35222) (Homo sapiens, UniProt P35222); assay: Fluorescence polarization IC50 (beta-catenin / 5FAM-TCF4 10-53 competition); type: binding; conditions: fluorescence polarization; read-out: beta-Catenin FP IC50
T1 construct: 10 nM full-length beta-Catenin (Uniprot ID P35222)
T1 sequence (P35222 1-781): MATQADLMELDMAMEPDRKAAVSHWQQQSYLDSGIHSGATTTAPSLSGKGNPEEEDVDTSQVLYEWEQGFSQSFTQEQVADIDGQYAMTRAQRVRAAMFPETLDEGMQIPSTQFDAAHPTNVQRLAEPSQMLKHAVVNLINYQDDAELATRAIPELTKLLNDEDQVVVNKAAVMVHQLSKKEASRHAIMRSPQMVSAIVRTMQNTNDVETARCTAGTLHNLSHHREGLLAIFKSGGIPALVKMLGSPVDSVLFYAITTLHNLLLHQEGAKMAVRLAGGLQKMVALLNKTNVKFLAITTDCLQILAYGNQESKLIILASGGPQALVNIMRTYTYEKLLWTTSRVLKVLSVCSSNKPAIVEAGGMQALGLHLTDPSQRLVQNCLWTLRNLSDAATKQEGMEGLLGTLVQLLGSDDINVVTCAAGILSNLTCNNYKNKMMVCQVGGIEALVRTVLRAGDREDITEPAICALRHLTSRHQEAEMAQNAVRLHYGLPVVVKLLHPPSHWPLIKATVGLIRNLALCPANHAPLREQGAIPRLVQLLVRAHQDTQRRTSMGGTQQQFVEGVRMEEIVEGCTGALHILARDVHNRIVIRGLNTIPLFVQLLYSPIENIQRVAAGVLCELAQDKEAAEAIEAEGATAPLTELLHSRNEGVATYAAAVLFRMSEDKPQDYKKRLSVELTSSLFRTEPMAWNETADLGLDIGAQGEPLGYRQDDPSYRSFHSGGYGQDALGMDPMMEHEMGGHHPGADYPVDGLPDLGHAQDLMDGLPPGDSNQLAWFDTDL

[2] = molecular target: T2, beta-catenin/TCF4 engagement (Homo sapiens, UniProt P35222); assay: Nano-BRET target engagement assay (B-cat-Halo & TCF4-Luc in HEK293 cells); type: cell-based; conditions: read-out: NanoBRET Abs IC50
T2 construct: expressed in transfected cells; host or cells: HEK293
T2 sequence (P35222 1-781): T1 sequence (P35222 1-781)

Q: Which results are given for `CC(=O)N1CCC[C@]12CC=CCCCC1(CCCC=CCCCOC(=O)N3CC[C@@](C(=O)N[C@@H](Cc4ccsc4)C(=O)N[C@@H](Cc4csc5ccccc45)C(=O)N[C@@H](Cc4ccccc4)C(N)=O)(C3)NC(=O)[C@H](CC(C)C)NC(=O)[C@H](Cc3ccccc3)NC(=O)[C@H](C)NC(=O)[C@H](C)NC(=O)[C@H](CN(CC(=O)O)CC(F)(F)F)NC(=O)[C@H](CC(=O)O)NC1=O)NC(=O)[C@H](CC(C)(C)C)NC(=O)[C@H](CC(=O)O)NC2=O` (stereo partly drawn) [I-1750, Ac-PL3-Asp-Npg-B5-Asp-TfeGA-Ala-Ala-Phe-Leu-PyrS2-3Thi-BztA-Phe-NH2]?
A: IC50 [1]: 104 nM; IC50 ([2]; absolute IC50): 23700 nM

Q: How did the IC50 [1] turn out when `CC(=O)N1CCC[C@]12CC=CCCCC1(CCCC=CCCCOC(=O)N3CC[C@@](C(=O)N[C@@H](Cc4ccsc4)C(=O)N[C@@H](Cc4csc5ccccc45)C(=O)N[C@H](C)C(N)=O)(C3)NC(=O)[C@H](Cc3ccccc3)NC(=O)[C@H](Cc3ccccc3)NC(=O)[C@H](C)NC(=O)[C@H](C)NC(=O)[C@H](Cc3cccc(C(=O)O)c3)NC(=O)[C@H](CC(=O)O)NC1=O)NC(=O)[C@H](CC(C)(C)C)NC(=O)[C@H](CC(=O)O)NC2=O` (stereo partly drawn) [I-2094, Ac-PL3-Asp-Npg-B5-Asp-3COOHF-Ala-Ala-Phe-Phe-PyrS2-3Thi-BztA-dAla-NH2] was run?
A: The IC50 was 28 nM.

Q: And the IC50 [2]?
A: The IC50 was 9700 nM.

Q: What does the source list for `CC(=O)N[C@]1(C)CCCCCCCCC2(CCCCCCCCOC(=O)N3CC[C@@](C(=O)N[C@@H](Cc4ccccc4C(F)(F)F)C(=O)N[C@@H](Cc4csc5ccccc45)C(=O)N[C@@H](CCC(N)=O)C(N)=O)(C3)NC(=O)[C@H](CC(C)C)NC(=O)[C@H](Cc3ccccc3)NC(=O)[C@H](C)NC(=O)[C@H](C)NC(=O)[C@H](Cc3cccc(C(=O)O)c3)NC(=O)[C@H](CC(=O)O)NC2=O)NC(=O)[C@H](CC(C)(C)C)NC(=O)[C@H](CC(=O)O)NC1=O` (stereo partly drawn) [I-2571, Ac-R5-Asp-Npg-B5-Asp-3COOHF-Ala-Ala-Phe-Leu-PyrS2-2F3MeF-BztA-Gln-NH2]?
A: IC50 [1]: 42 nM; IC50 [2]: 24000 nM

Q: Which IC50 [1] does the source give for `CC(=O)N1CCC[C@]12CC=CCCCC1(CCCC=CCCCOC(=O)N3CC[C@@](C(=O)N[C@@H](Cc4ccccc4C(F)(F)F)C(=O)N[C@@H](Cc4csc5ccccc45)C(=O)N[C@@H](CCS(C)(=O)=O)C(N)=O)(C3)NC(=O)[C@H](CC(C)C)NC(=O)[C@H](Cc3ccccc3)NC(=O)[C@H](C)NC(=O)[C@H](C)NC(=O)[C@H](Cc3cccc(C(=O)O)c3)NC(=O)[C@H](CC(=O)O)NC1=O)NC(=O)[C@H](CC(C)(C)C)NC(=O)[C@H](CC(=O)O)NC2=O` (stereo partly drawn) [I-2063, Ac-PL3-Asp-Npg-B5-Asp-3COOHF-Ala-Ala-Phe-Leu-PyrS2-2F3MeF-BztA-Met2O-NH2] here?
A: The IC50 was 56 nM.

Q: And the IC50 [2]?
A: The IC50 was 3500 nM.

Q: Which results are given for `CC(=O)N1CCC[C@]12CC=CCCCC1(CCCC=CCCCOC(=O)N3CC[C@@](C(=O)N[C@@H](Cc4ccsc4)C(=O)N[C@@H](Cc4csc5ccccc45)C(=O)N[C@@H](CCC(N)=O)C(N)=O)(C3)NC(=O)[C@H](CC(C)C)NC(=O)[C@H](Cc3ccccc3)NC(=O)[C@H](C)NC(=O)[C@H](C)NC(=O)[C@H](CNc3ncccc3C(=O)O)NC(=O)[C@H](CC(=O)O)NC1=O)NC(=O)[C@H](CC(C)(C)C)NC(=O)[C@H](CC(=O)O)NC2=O` (stereo partly drawn) [I-1845, Ac-PL3-Asp-Npg-B5-Asp-[2Nic]Dap-Ala-Ala-Phe-Leu-PyrS2-3Thi-BztA-Gln-NH2]?
A: IC50 [1]: 30 nM; IC50 ([2]; absolute IC50): 6300 nM

Q: With `CC(=O)N1CCC[C@]12CC=CCCCC1(CCCC=CCCCOC(=O)N3CC[C@@](C(=O)N[C@@H](Cc4ccccc4C(F)(F)F)C(=O)N[C@H](C(=O)N[C@@H](C)C(N)=O)[C@H](C)c4csc5ccccc45)(C3)NC(=O)[C@H](CC(C)C)NC(=O)[C@H](Cc3ccccc3)NC(=O)[C@H](C)NC(=O)[C@H](CCC(N)=O)NC(=O)[C@H](Cc3cccc(C(=O)O)c3)NC(=O)[C@H](CC(=O)O)NC1=O)NC(=O)[C@H](CC(C)(C)C)NC(=O)[C@H](CC(=O)O)NC2=O` (stereo partly drawn) [I-2459, Ac-PL3-Asp-Npg-B5-Asp-3COOHF-Gln-Ala-Phe-Leu-PyrS2-2F3MeF-RbMeBztA-Ala-NH2] as the molecule, how does the IC50 [1] read?
A: Its IC50 is 56 nM.

Q: What about the IC50 ([2]; absolute IC50) of the same molecule?
A: Its IC50 is 15100 nM.

Q: How did the IC50 [1] turn out when `CC(=O)N1CCC[C@]12CC=CCCCC1(CCCC=CCCCCCC[C@@](C)(C(=O)N[C@@H](Cc3ccccc3)C(=O)N[C@@H](Cc3csc4ccccc34)C(=O)N[C@@H](CCC(N)=O)C(N)=O)NC(=O)[C@H](CC(C)C)NC(=O)[C@H](Cc3ccccc3)NC(=O)[C@H](C)NC(=O)[C@H](C)NC(=O)[C@H](CCC(=O)O)NC(=O)[C@H](CC(=O)O)NC1=O)NC(=O)[C@H](CC(N)=O)NC(=O)[C@H](CC(=O)O)NC2=O` (stereo partly drawn) [I-1533, Ac-PL3-Asp-Asn-B5-Asp-Glu-Ala-Ala-Phe-Leu-S8-Phe-BztA-Gln-NH2] was run?
A: The IC50 was 76 nM.

Q: And the IC50 ([2]; absolute IC50)?
A: The IC50 was over 20000 nM.

Q: With `CC(=O)N1CCC[C@]12CC=CCCCC1(CCCC=CCCCOC(=O)N3CC[C@@](C(=O)N[C@@H](Cc4ccccc4C(F)(F)F)C(=O)N[C@@H](Cc4csc5ccccc45)C(=O)N[C@@H](CCC(=O)N4CCOCC4)C(N)=O)(C3)NC(=O)[C@H](CCC(=O)N3CCOCC3)NC(=O)[C@H](Cc3ccccc3)NC(=O)[C@H](C)NC(=O)[C@H](C)NC(=O)[C@H](Cc3cccc(C(=O)O)c3)NC(=O)[C@H](CC(=O)O)NC1=O)NC(=O)[C@H](CC(C)(C)C)NC(=O)[C@H](CC(=O)O)NC2=O` (stereo partly drawn) [I-2546, Ac-PL3-Asp-Npg-B5-Asp-3COOHF-Ala-Ala-Phe-MorphGln-PyrS2-2F3MeF-BztA-MorphGln-NH2] as the molecule, how does the IC50 [1] read?
A: The IC50 was 13 nM.

Q: And the IC50 ([2]; absolute IC50)?
A: The IC50 was 3500 nM.

Q: How did the IC50 [1] turn out when `CC(=O)N1CCC[C@]12CC=CCCCC1(CCCC=CCCCOC(=O)N3CC[C@@](C(=O)N[C@@H](Cc4ccsc4)C(=O)N[C@@H](Cc4csc5ccccc45)C(=O)N[C@@H](C)C(N)=O)(C3)NC(=O)[C@H](Cc3ccccc3)NC(=O)[C@H](Cc3ccccc3)NC(=O)[C@H](C)NC(=O)[C@H](CCC(N)=O)NC(=O)[C@H](Cc3cccc(C(=O)O)c3)NC(=O)[C@H](CC(=O)O)NC1=O)NC(=O)[C@H](CC(C)(C)C)NC(=O)[C@H](CC(=O)O)NC2=O` (stereo partly drawn) [I-2052, Ac-PL3-Asp-Npg-B5-Asp-3COOHF-Gln-Ala-Phe-Phe-PyrS2-3Thi-BztA-Ala-NH2] was run?
A: Its IC50 is 12 nM.

Q: What about the IC50 [2] of the same molecule?
A: The IC50 was 6000 nM.

Q: What does the source list for `CCCC[C@@H]1NC(=O)[C@H](Cc2cccc(C(=O)O)c2)NC(=O)[C@H](CC(=O)O)NC(=O)C2(CCCC=CCCCOC(=O)N3CC[C@@](C(=O)N[C@@H](Cc4ccccc4Cl)C(=O)N[C@@H](Cc4csc5ccccc45)C(=O)N[C@@H](CCC(N)=O)C(N)=O)(C3)NC(=O)[C@H](CC(C)C)NC(=O)[C@H](Cc3ccccc3)NC(=O)CNC1=O)CCCC=CC[C@]1(CCCN1C(C)=O)C(=O)N[C@@H](CC(=O)O)C(=O)N[C@@H](CC(C)(C)C)C(=O)N2` (stereo partly drawn) [I-1688, Ac-PL3-Asp-Npg-B5-Asp-3COOHF-nLeu-Gly-Phe-Leu-PyrS2-2C1F-BztA-Gln-NH2]?
A: IC50 [1]: 59 nM; IC50 ([2]; absolute IC50): 21500 nM

Q: For `CC(=O)N1CCC[C@]12CCCCCCC1(CCCCCCCCOC(=O)N3CC[C@@](C(=O)N[C@@H](Cc4ccccc4C)C(=O)N[C@@H](Cc4csc5ccccc45)C(=O)N[C@@H](CCC(N)=O)C(N)=O)(C3)NC(=O)[C@H](CC(C)C)NC(=O)[C@H](Cc3ccccc3)NC(=O)[C@H](C)NC(=O)[C@H](C)NC(=O)[C@H](CN(CC(=O)O)CC(F)(F)F)NC(=O)[C@H](CC(=O)O)NC1=O)NC(=O)[C@H](CC(C)(C)C)NC(=O)[C@H](CC(=O)O)NC2=O` (stereo partly drawn) [I-1726, Ac-PL3-Asp-Npg-B5-Asp-TfeGA-Ala-Ala-Phe-Leu-PyrS2-2MeF-BztA-Gln-NH2], which IC50 [1] is on record?
A: Its IC50 is 274 nM.

Q: And the IC50 ([2]; absolute IC50)?
A: The IC50 was over 20000 nM.

Q: `CC(=O)N1CCC[C@]12CC=CCCCC1(CCCC=CCCCOC(=O)N3CC[C@@](C(=O)N[C@@H](Cc4ccsc4)C(=O)N[C@@H](Cc4csc5ccccc45)C(=O)N[C@@H](CCC(N)=O)C(N)=O)(C3)NC(=O)[C@H](CCO)NC(=O)[C@H](Cc3cccc(C(=O)O)c3)NC(=O)[C@H](C)NC(=O)[C@H](C)NC(=O)[C@H](Cc3c[nH]c4ccccc34)NC(=O)[C@H](CC(=O)O)NC1=O)NC(=O)[C@H](CC(C)(C)C)NC(=O)[C@H](CC(=O)O)NC2=O` (stereo partly drawn) [I-2128, Ac-PL3-Asp-Npg-B5-Asp-Trp-Ala-Ala-3COOHF-Hse-PyrS2-3Thi-BztA-Gln-NH2] was tested. Which IC50 [1] did it give?
A: The IC50 was 29 nM.

Q: And the IC50 [2]?
A: Its IC50 is 27000 nM.

Q: Which results are given for `CC(=O)N1CCC[C@]12CC=CCCCC1(CCCC=CCCCOC(=O)N3CC[C@@](C(=O)N[C@@H](Cc4ccccc4Cl)C(=O)N[C@@H](Cc4csc5ccccc45)C(=O)N[C@H](CO)[C@@H](C)O)(C3)NC(=O)[C@H](CC(C)C)NC(=O)[C@H](Cc3ccccc3)NC(=O)[C@H](C)NC(=O)[C@H](C)NC(=O)[C@H](CC(=O)O)NC(=O)[C@H](CC(=O)O)NC1=O)NC(=O)[C@H](CC(C)(C)C)NC(=O)[C@H](CC(=O)O)NC2=O` (stereo partly drawn) [I-1249, Ac-PL3-Asp-Npg-B5-Asp-Asp-Ala-Ala-Phe-Leu-PyrS2-2C1F-BztA-Thro1]?
A: IC50 [1]: 17 nM; IC50 ([2]; absolute IC50): 25200 nM
